Holding throughout (format): physicochemical
Series [1] can be described thus: Testing for weight change under humidified conditions. Particulars: room temperature; for State / Change in weight: desiccator containing water. Here is the method:
Each analyte (10.0 mg) was metered into a microtube (diameter: 8 mm, length: 50 mm) and allowed to stand in a desiccator containing water in such a manner as to keep the tube from coming into contact with water. The desiccator was allowed to stand at room temperature. The analytes were monitored for their state and measured for their weight with time. Changes in weight were expressed as percentages (%).

The nature of series [2]: Solid-state stability testing (remaining percentage by HPLC). Here is the method:
Each analyte (about 1 mg) was precisely metered and stored in a screw-capped test tube covered with aluminum foil for light shielding, which was sealed under heated conditions (70° C.) or opened under heated and humidified conditions (40° C., 75% RH). The remaining percentage of each drug was measured in the following manner. After completion of a given period of storage, the test tubes were supplemented with 10 ml HPLC mobile phase to dissolve the analytes and then provided for quantification by HPLC. The results were compared in area with the initial values obtained before heating or before heating and humidification to calculate the remaining percentage of drugs.
Column temperature: 40° C.
Detection: UV absorptiometer (Detection wavelength: 210 nm)
Mobile phase: water/acetonitrile/phosphoric acid/SDS (700:300:1:2)

Series [3] is described as follows: Compatibility testing with additives (remaining percentage by HPLC). Particulars: 65° C. for 1 week, sealed, methanesulfonate salt. As for the experimental part: This testing was performed according to the report of Serajuddin A. T. M. et al. (J. Pharm. Sci., 88, 696-704, 1999). A drug substance and additives were metered into a screw-capped test tube according to Recipe A (10 mg drug substance, 68 mg crystalline cellulose, 2 mg magnesium stearate) or Recipe B (10 mg drug substance, 68 mg lactose, 2 mg hydrogenated oil) and mixed in a rotary mixer (MIX-ROTAR VMR-5, Iuchi Seieido Co., Ltd., Japan) for 1 hour. The mixture according to Recipe A or B was further stirred using a vortex mixer (TOUCH MIXER MT-31, Yamato Scientific Co., Ltd., Japan), provided that Recipe A was supplemented with no additional ingredient, while Recipe B was supplemented with 16 μl purified water. The mixtures were stored at 65° C. for 1 week under sealed and completely light-shielded conditions and then measured for drug content after storage to calculate the remaining percentage of each drug in each recipe.
The drug content was determined in the following manner. […] The resulting solutions were each filtered through a 0.45 μm membrane filter, 5 ml of which was sampled and filled up with 50% methanol in a 10 ml measuring flask for use as a sample solution and then quantified by HPLC. […]

[4] abbreviates: humidified conditions, over the test period.
The mark [5] stands for this setting: 40° C., 75% RH for 1 month, opened, light-shielded.
Setting [6] is: 70° C. for 3 days, sealed, light-shielded.

Some results are limits rather than exact numbers.

For the compound `CC(C)(CO)NCC(=O)N1C[C@@H](F)C[C@H]1C#N.O=S(=O)(O)c1ccccc1` [Example 1, (2S,4S)-2-cyano-4-fluoro-1-[(2-hydroxy-1,1-dimethyl)ethylamino]acetylpyrrolidine benzenesulfonate salt], in series [1] (Day 3), the State result is given as “No change”. In addition, the “Change in weight under humidified conditions” value in series [1] (setting [4]) was “no change in weight”. The “State under humidified conditions” value in series [1] (setting [4]) is on record as “no deliquescence”. For the same compound, the “Remaining percentage of drug” value in series [2] (setting [5]) is listed as 99.6%; in series [2] (setting [6]) it was 99.3%; in series [2] (under either condition (70° C. 3 days; 40° C., 75% RH 1 month)) it was no less than 99%.
With `CC(C)(CO)NCC(=O)N1C[C@@H](F)C[C@H]1C#N.Cl` [Reference Example 1, (2S,4S)-2-cyano-4-fluoro-1-[(2-hydroxy-1,1-dimethyl)ethylamino]acetylpyrrolidine hydrochloride salt], in series [1] (Day 1), the Change in weight result is “+44%” and the State result is listed as “Deliquescence”. Also, the “State under humidified conditions” value in series [1] (setting [4]) is “deliquesced”. For the same compound, the “Remaining percentage of drug” value in series [2] (setting [5]) is listed as 92.6%. Further, the “Remaining percentage of drug” value in series [2] (setting [6]) is recorded as 97.0%.
On to `CC(C)(CO)NCC(=O)N1C[C@@H](F)C[C@H]1C#N.CS(=O)(=O)O` [Reference Example 2, (2S,4S)-2-cyano-4-fluoro-1-[(2-hydroxy-1,1-dimethyl)ethylamino]acetylpyrrolidine methanesulfonate salt], for which the values for the Change in weight result in series [1] (Day 1) and in series [1] (Day 2) were “+28%” and “+71%”, respectively. For the same compound, in series [1] (Day 2), the State result is “Deliquescence”. Besides, the “State under humidified conditions” value in series [1] (setting [4]) is reported as “deliquesced”. Besides, the “Remaining percentage of drug” value is listed as 91.6% in series [3] (Recipe A (crystalline cellulose, magnesium stearate)); 74.5% in series [3] (Recipe B (lactose, hydrogenated oil, purified water)); 95.9% in series [2] (setting [5]); 95.5% in series [2] (setting [6]).

(Values after patent US7304166B2, “Benzenesulfonate salt of 4-fluoro-2-cyanopyrrolidine derivatives” (Taisho Pharmaceutical Co., Ltd., priority 2002, dated 2007).)
